Laboratory results taken from patent publication EP4745135A1 (Gluetacs Therapeutics (Shanghai) Co., Ltd., priority 2023, dated 2025).

Tests used:
[1] = tested on: Human acute T lymphocytic leukemia cell (Molt4); assay: Tumor cell proliferation inhibition (CellTiter-Meiluncell luminescent cell viability assay); settings: MOLT-4, 96 h; for inhibition at 0.01 µM: read-out: Inhibition Rate at 10 nM (%); for inhibition at 0.5 µM: read-out: Inhibition Rate at 500 nM (%)
[2] = target: T1, human Cereblon WT GST-tagged protein (Homo sapiens, UniProt Q96SW2); assay: CRBN-binding affinity, HTRF (CEREBLON BINDING kit); settings: for inhibition at 0.5 µM: read-out: Inhibition Rate at 0.5 µM (%); for inhibition at 2 µM: read-out: Inhibition Rate at 2 µM (%)
T1 construct: purchased CISBIO 64BDCRBNPEH
T1 sequence (Q96SW2 whole entry): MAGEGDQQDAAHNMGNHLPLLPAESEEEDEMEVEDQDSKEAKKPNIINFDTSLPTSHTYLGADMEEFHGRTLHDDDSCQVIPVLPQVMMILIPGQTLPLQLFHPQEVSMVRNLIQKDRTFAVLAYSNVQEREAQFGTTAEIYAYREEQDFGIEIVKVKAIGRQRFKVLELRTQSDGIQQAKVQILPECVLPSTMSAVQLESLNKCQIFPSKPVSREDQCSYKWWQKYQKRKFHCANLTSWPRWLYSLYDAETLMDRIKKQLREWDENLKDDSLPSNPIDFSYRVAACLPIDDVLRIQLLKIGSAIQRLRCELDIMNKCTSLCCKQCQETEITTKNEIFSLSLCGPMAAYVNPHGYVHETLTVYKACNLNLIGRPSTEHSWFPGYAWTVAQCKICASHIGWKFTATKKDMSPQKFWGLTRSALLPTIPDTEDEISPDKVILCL

GSPT1 = assay: Western blot, degradation of substrate protein in hPBMCs; format: cell-based, Human
[3] = tested on: Human multiple myeloma cell (MM.1S); assay: Tumor cell proliferation inhibition (CellTiter-Meiluncell luminescent cell viability assay); settings: for inhibition at 0.01 µM / inhibition at 0.5 µM: Homo sapiens, MM1.S, 96 h; for inhibition at 0.01 µM: read-out: Inhibition Rate at 10 nM (%); for inhibition at 0.5 µM: read-out: Inhibition Rate at 500 nM (%)
IKZF2 = target: T2, IKZF2 (Homo sapiens, UniProt Q96SW2+Q9UKS7); assay: Western blot, degradation of substrate protein in hPBMCs; format: cell-based
T2 construct: effects of the compounds of the present disclosure on the expression of target proteins in cells; endogenous in cells; host or cells: human PBMCs (Milecell Biotechnologies)
T2 sequence (Q9UKS7 whole entry): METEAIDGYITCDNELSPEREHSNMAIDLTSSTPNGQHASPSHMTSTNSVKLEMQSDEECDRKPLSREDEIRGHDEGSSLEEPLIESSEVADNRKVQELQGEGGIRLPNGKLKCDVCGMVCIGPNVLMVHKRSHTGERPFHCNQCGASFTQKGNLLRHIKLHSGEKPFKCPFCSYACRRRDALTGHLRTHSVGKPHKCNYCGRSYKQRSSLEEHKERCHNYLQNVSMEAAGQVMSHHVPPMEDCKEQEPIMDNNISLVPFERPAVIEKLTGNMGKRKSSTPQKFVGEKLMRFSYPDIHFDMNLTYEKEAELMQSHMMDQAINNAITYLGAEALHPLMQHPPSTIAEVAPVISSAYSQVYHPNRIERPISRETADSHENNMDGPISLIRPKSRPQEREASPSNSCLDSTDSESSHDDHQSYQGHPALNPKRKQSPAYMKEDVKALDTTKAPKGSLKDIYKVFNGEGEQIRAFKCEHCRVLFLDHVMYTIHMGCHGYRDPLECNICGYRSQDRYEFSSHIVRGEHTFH
T2 sequence (Q96SW2 whole entry): as the sequence (Q96SW2 whole entry) above
T2 sequence (Q16531 whole entry partner): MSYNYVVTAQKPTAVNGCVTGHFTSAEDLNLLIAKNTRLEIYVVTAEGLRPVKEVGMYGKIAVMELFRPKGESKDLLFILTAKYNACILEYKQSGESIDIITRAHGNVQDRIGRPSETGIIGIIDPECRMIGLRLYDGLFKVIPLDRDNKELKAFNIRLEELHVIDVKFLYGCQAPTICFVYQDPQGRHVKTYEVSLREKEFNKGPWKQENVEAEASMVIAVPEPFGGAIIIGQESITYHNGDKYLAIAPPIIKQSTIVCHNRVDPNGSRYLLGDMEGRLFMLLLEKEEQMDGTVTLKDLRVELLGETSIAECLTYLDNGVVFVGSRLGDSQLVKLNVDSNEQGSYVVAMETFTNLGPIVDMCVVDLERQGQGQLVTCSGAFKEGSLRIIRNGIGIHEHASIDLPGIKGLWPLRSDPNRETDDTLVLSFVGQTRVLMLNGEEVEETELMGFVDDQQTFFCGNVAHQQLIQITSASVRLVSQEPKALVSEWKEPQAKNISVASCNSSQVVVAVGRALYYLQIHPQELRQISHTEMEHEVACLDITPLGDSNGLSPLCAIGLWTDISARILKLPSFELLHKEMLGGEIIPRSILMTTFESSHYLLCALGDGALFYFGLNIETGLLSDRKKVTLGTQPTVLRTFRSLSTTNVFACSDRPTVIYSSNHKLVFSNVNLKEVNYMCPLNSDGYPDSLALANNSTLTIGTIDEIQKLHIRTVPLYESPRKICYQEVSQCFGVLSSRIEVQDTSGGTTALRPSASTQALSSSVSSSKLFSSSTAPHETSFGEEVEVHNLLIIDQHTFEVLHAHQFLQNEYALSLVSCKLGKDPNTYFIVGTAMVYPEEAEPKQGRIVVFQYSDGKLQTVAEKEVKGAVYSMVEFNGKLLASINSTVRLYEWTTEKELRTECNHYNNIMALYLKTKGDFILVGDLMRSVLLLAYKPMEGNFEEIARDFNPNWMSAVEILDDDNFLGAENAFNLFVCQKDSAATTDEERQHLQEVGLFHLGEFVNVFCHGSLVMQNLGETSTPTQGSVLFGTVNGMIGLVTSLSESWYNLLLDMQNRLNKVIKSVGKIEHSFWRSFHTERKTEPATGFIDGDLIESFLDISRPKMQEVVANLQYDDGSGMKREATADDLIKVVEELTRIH

WEE1 = target: T3, WEE1 (Homo sapiens, UniProt P30291+Q96SW2); assay: as above; format: cell-based
T3 construct: effects of the compounds of the present disclosure on the expression of target proteins in cells; endogenous in cells; host or cells: human PBMCs (Milecell Biotechnologies)
T3 sequence (P30291 whole entry): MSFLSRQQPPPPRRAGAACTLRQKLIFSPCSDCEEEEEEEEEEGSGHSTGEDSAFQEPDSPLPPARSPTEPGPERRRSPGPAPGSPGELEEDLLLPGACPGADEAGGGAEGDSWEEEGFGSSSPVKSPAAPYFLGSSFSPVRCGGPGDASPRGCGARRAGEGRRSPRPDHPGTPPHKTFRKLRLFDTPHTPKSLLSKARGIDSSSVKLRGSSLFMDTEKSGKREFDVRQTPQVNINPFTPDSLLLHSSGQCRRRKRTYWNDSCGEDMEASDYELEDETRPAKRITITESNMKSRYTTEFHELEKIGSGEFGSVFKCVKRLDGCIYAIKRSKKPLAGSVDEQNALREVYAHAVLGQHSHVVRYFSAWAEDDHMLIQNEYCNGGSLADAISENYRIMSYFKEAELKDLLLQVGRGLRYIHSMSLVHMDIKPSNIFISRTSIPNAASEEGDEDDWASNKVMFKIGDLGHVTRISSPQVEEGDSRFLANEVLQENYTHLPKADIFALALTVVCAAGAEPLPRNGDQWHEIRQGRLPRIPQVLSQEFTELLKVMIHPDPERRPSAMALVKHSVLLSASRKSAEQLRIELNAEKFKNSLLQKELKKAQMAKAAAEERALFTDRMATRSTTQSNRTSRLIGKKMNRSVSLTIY
T3 sequence (Q96SW2 whole entry): as the sequence (Q96SW2 whole entry) above
T3 sequence (Q16531 whole entry partner): as the sequence (Q16531 whole entry partner) above

CK1α = target: T4, CK1α (Homo sapiens, UniProt P48729+Q96SW2); assay: as above; format: cell-based
T4 construct: effects of the compounds of the present disclosure on the expression of target proteins in cells; endogenous in cells; host or cells: human PBMCs (Milecell Biotechnologies)
T4 sequence (P48729 whole entry): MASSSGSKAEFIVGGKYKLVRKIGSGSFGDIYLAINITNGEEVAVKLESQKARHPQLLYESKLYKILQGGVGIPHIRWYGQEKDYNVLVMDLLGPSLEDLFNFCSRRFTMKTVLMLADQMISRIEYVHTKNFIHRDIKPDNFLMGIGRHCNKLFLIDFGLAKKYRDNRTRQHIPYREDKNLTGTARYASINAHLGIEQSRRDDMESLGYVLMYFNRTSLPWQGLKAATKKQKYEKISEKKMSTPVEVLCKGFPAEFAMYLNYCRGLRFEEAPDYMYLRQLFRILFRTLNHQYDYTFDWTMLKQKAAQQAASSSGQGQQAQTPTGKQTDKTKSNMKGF
T4 sequence (Q96SW2 whole entry): as the sequence (Q96SW2 whole entry) above
T4 sequence (Q16531 whole entry partner): as the sequence (Q16531 whole entry partner) above

IKZF1 = target: T5, IKZF1 (Homo sapiens, UniProt Q13422+Q96SW2); assay: as above; format: cell-based
T5 construct: effects of the compounds of the present disclosure on the expression of target proteins in cells; endogenous in cells; host or cells: human PBMCs (Milecell Biotechnologies)
T5 sequence (Q13422 whole entry): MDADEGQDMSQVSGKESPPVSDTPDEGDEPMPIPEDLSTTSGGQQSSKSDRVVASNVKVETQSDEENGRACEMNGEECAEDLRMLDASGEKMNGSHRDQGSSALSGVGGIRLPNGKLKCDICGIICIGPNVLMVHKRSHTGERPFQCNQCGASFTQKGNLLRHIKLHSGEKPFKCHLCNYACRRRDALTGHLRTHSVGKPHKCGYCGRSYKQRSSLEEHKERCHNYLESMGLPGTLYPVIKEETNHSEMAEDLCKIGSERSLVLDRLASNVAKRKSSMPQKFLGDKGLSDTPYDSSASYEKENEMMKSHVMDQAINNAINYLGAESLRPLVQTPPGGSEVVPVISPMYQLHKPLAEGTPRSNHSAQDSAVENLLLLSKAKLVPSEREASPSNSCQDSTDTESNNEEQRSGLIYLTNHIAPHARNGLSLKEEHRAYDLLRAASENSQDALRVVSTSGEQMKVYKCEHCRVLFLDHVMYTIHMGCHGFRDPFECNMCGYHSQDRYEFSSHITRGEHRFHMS
T5 sequence (Q96SW2 whole entry): as the sequence (Q96SW2 whole entry) above
T5 sequence (Q16531 whole entry partner): as the sequence (Q16531 whole entry partner) above

IKZF3 = target: T6, IKZF3 (Homo sapiens, UniProt Q96SW2+Q9UKT9); assay: as above; format: cell-based
T6 construct: effects of the compounds of the present disclosure on the expression of target proteins in cells; endogenous in cells; host or cells: human PBMCs (Milecell Biotechnologies)
T6 sequence (Q9UKT9 whole entry): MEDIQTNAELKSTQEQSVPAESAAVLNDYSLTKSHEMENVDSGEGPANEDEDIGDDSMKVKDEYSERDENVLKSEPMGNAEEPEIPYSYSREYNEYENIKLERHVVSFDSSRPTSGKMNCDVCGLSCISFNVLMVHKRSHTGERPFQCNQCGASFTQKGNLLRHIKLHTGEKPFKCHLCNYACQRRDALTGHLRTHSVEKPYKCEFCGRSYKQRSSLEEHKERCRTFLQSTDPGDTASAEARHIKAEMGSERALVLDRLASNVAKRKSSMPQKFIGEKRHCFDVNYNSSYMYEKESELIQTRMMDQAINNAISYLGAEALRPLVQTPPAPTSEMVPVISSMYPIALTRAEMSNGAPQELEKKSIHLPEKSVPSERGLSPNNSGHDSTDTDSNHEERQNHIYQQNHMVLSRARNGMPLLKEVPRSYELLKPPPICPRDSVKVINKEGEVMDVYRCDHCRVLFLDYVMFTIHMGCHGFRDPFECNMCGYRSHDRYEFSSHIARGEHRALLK
T6 sequence (Q96SW2 whole entry): as the sequence (Q96SW2 whole entry) above
T6 sequence (Q16531 whole entry partner): as the sequence (Q16531 whole entry partner) above

[4] = tested on: Human myeloid monocytic leukemia cell (MV-4-11); assay: Tumor cell proliferation inhibition (CellTiter-Meiluncell luminescent cell viability assay); settings: MV4-11, 96 h; for inhibition at 0.01 µM: read-out: Inhibition Rate at 10 nM (%); for inhibition at 0.5 µM: read-out: Inhibition Rate at 500 nM (%)
[5] = Western blot, 24 hours of compound treatment, compounds tested at 50 nM and 500 nM (concentration for the table not stated)
[6] = 24 hours treatment, compounds at 50 nM and 500 nM (concentration behind the class not stated)

SMILES | inhibition at 0.01 µM [1] [%] | inhibition at 0.5 µM [1] [%] | inhibition at 0.5 µM [2] [%] | inhibition at 2 µM [2] [%] | GSPT1 substrate protein remaining % (GSPT1; [5]) | inhibition at 0.01 µM [3] [%] | inhibition at 0.5 µM [3] [%] | IKZF2 substrate protein remaining % (IKZF2; [5]) | Wee1 substrate protein remaining % (WEE1; [5]) | CK1α substrate protein remaining % (CK1α; [5]) | IKZF 1 substrate protein remaining % (IKZF1; [5]) | IKZF3 substrate protein remaining % (IKZF3; [5]) | inhibition at 0.01 µM [4] [%] | inhibition at 0.5 µM [4] [%] | GSPT1 substrate protein remaining % (GSPT1; [6]) | IKZF2 substrate protein remaining % (IKZF2; [6]) | Wee1 substrate protein remaining % (WEE1; [6]) | CK1α substrate protein remaining % (CK1α; [6]) | IKZF 1 substrate protein remaining % (IKZF1; [6]) | IKZF3 substrate protein remaining % (IKZF3; [6]) | further results
O=C1CCC(N2Cc3c(CN4CCN(Cc5ccc(-c6ccc(Cl)cc6)cc5)CC4)cccc3C2=S)C(=O)N1 (stereo not drawn) [GT-08960, 3-(4-((4-((4'-chloro-[1,1'-biphenyl]-4-yl)methyl)piperazin-1-yl)methyl)-1-thioxoisoindolin-2-yl)piperidine-2,6-dione] | 20 to 30 | 40 to 50 | 53 to 60 | 80 to 100 |  |  |  |  |  |  |  |  |  |  |  |  |  |  |  |  | 
O=C1CCC(N2Cc3cc(CN4CCN(c5ccc(F)cc5)CC4)ccc3C2=S)C(=O)N1 (stereo not drawn) [GT-08240, 3-(5-((4-(4-fluorophenyl)piperazin-1-yl)methyl)-1-thioxoisoindolin-2-yl)piperidine-2,6-dione] |  |  | 53 to 60 | 80 to 100 | A (0% ≤ substrate protein remaining % ≤ 80%) | 50 to 60 | 50 to 60 | B (80%< substrate protein remaining %≤ 100%) | B (80%< substrate protein remaining %≤ 100%) | B (80%< substrate protein remaining %≤ 100%) | B (80%< substrate protein remaining %≤ 100%) | B (80%< substrate protein remaining %≤ 100%) | 0 to 5 | 40 to 60 |  |  |  |  |  |  | 
O=C1CCC(N2Cc3cc(CN4CCC(c5ccccc5F)CC4)ccc3C2=S)C(=O)N1 (stereo not drawn) [GT-08620, 3-(5-((4-(2-fluorophenyl)piperidin-1-yl)methyl)-1-thioxoisoindolin-2-yl)piperidine-2,6-dione] |  |  | 53 to 60 | 80 to 100 | A (0% ≤ substrate protein remaining % ≤ 80%) | 40 to 50 | 70 to 80 | A (0% ≤ substrate protein remaining % ≤ 80%) | B (80%< substrate protein remaining %≤ 100%) | B (80%< substrate protein remaining %≤ 100%) | B (80%< substrate protein remaining %≤ 100%) | B (80%< substrate protein remaining %≤ 100%) | 30 to 40 | 60 to 80 |  |  |  |  |  |  | 
O=C1CCC(N2Cc3cc(CN4CCN(c5ccnc(Cl)c5Br)CC4)ccc3C2=S)C(=O)N1 (stereo not drawn) [GT-09240, 3-(5-((4-(3-bromo-2-chloropyridin-4-yl)piperazin-1-yl)methyl)-1-thioxoisoindolin-2-yl)piperidine-2,6-dione] | 50 to 60 | 30 to 40 | 80 to 100 | 80 to 100 |  |  |  |  |  |  |  |  |  |  | A (0% ≤ substrate protein remaining % ≤ 80%) | B (80%< substrate protein remaining %≤ 100%) | B (80%< substrate protein remaining %≤ 100%) | B (80%< substrate protein remaining %≤ 100%) | A (0% ≤ substrate protein remaining % ≤ 80%) | B (80%< substrate protein remaining %≤ 100%) | 
O=C1CCC(N2Cc3cc(CN4CCN(c5ccc(Br)cc5)CC4)ccc3C2=S)C(=O)N1 (stereo not drawn) [GT-08600, 3-(5-((4-(4-bromophenyl)piperazin-1-yl)methyl)-1-thioxoisoindolin-2-yl)piperidine-2,6-dione] |  |  | 53 to 60 | 80 to 100 | A (0% ≤ substrate protein remaining % ≤ 80%) | 30 to 40 | 60 to 70 | B (80%< substrate protein remaining %≤ 100%) | B (80%< substrate protein remaining %≤ 100%) | B (80%< substrate protein remaining %≤ 100%) | B (80%< substrate protein remaining %≤ 100%) | B (80%< substrate protein remaining %≤ 100%) | 40 to 60 | 80 to 100 |  |  |  |  |  |  | 
Cc1ccsc1C1CCN(Cc2ccc3c(c2)CN(C2CCC(=O)NC2=O)C3=S)CC1 (stereo not drawn) [GT-08323, 3-(5-((4-(3-methylthiophen-2-yl)piperidin-1-yl)methyl)-1-thioxoisoindolin-2-yl)piperidine-2,6-dione] |  |  | 40 to 53 | 80 to 100 |  | 0 to 5 |  |  |  |  |  |  | -5 to 0 | 40 to 60 | A (0% ≤ substrate protein remaining % ≤ 80%) | B (80%< substrate protein remaining %≤ 100%) | B (80%< substrate protein remaining %≤ 100%) | A (0% ≤ substrate protein remaining % ≤ 80%) | B (80%< substrate protein remaining %≤ 100%) | B (80%< substrate protein remaining %≤ 100%) | Inhibition Rate at 500 nM (%) ([3]; MM.1S, 500 nM, 96 hours): la7
O=C1CCC(N2Cc3c(CN4CC=C(c5ncnc6sc(-c7ccccc7)cc56)CC4)cccc3C2=S)C(=O)N1 (stereo not drawn) [GT-08956, 3-(4-((4-(6-phenylthieno[2,3-d]pyrimidin-4-yl)-3,6-dihydropyridin-1(2H)-yl)methyl)-1-thioxoisoindolin-2-yl)piperidine-2,6-dione] |  |  | 53 to 60 | 60 to 80 |  | 20 to 30 | 40 to 50 |  |  |  |  |  | 18 to 25 | 40 to 60 | A (0% ≤ substrate protein remaining % ≤ 80%) | B (80%< substrate protein remaining %≤ 100%) | A (0% ≤ substrate protein remaining % ≤ 80%) | B (80%< substrate protein remaining %≤ 100%) | B (80%< substrate protein remaining %≤ 100%) | B (80%< substrate protein remaining %≤ 100%) | 
O=C1CCC(N2Cc3c(CN4C[C@@H]5C[C@H]4CN5c4cccc(Cl)c4Cl)cccc3C2=S)C(=O)N1 (stereo partly drawn) [GT-08468, 3-(4-(((1S,4S)-5-(2,3-dichlorophenyl)-2,5-diazabicyclo[2.2.1]heptan-2-yl)methyl)-1-thioxoisoindolin-2-yl)piperidine-2,6-dione] |  |  | 40 to 53 | 80 to 100 | A (0% ≤ substrate protein remaining % ≤ 80%) | 40 to 50 | 50 to 60 | B (80%< substrate protein remaining %≤ 100%) | B (80%< substrate protein remaining %≤ 100%) | B (80%< substrate protein remaining %≤ 100%) | B (80%< substrate protein remaining %≤ 100%) | B (80%< substrate protein remaining %≤ 100%) | 40 to 60 | 40 to 60 |  |  |  |  |  |  | 
O=C1CCC(N2Cc3cc(CN4CCN(c5ccc(Cl)cn5)CC4)ccc3C2=S)C(=O)N1 (stereo not drawn) [GT-09217, 3-(5-((4-(5-chloropyridin-2-yl)piperazin-1-yl)methyl)-1-thioxoisoindolin-2-yl)piperidine-2,6-dione] |  |  | 60 to 80 | 80 to 100 | A (0% ≤ substrate protein remaining % ≤ 80%) | 30 to 40 | 60 to 70 | B (80%< substrate protein remaining %≤ 100%) | B (80%< substrate protein remaining %≤ 100%) | B (80%< substrate protein remaining %≤ 100%) | B (80%< substrate protein remaining %≤ 100%) | B (80%< substrate protein remaining %≤ 100%) | 40 to 60 | 80 to 100 |  |  |  |  |  |  | 
O=C1CCC(N2Cc3cc(CN4CCN(c5ccc(Cl)c(Cl)c5)CC4)ccc3C2=S)C(=O)N1 (stereo not drawn) [GT-08612, 3-(5-((4-(3,4-dichlorophenyl)piperazin-1-yl)methyl)-1-thioxoisoindolin-2-yl)piperidine-2,6-dione] | 10 to 20 | 50 to 60 | 30 to 40 | 60 to 80 | A (0% ≤ substrate protein remaining % ≤ 80%) |  |  | B (80%< substrate protein remaining %≤ 100%) | B (80%< substrate protein remaining %≤ 100%) | B (80%< substrate protein remaining %≤ 100%) | B (80%< substrate protein remaining %≤ 100%) | B (80%< substrate protein remaining %≤ 100%) |  |  |  |  |  |  |  |  | 
